# Target: T1, PLK1 (Homo sapiens, UniProt P53350)
# T1 construct: PLK kinase domain (amino acids 21-346 preceded by MKKGHHHHHHD); made in house; host or cells: baculovirus infected T. ni cells
# Experiment: Assay for inhibition of PLK1 (SPA kinase assay)
# Assay type: biochemical
# Conditions: 1 μM ATP, 2 nM PLK1 kinase domain, read-out: PLK1 pIC50 (converted)
# How it was run: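 His-tagged PLK1 kinase domain (aa 21-346, baculovirus/T. ni) at 2 nM with 1 μM ATP plus 33P-γ-ATP and 1 μM biotinylated peptide in 25 mM HEPES pH 7.2, 15 mM MgCl2, 1 mM DTT, 0.15 mg/mL BSA; 1-1.5 h at 22° C. Streptavidin SPA capture read; percent inhibition versus DMSO, EDTA background.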
# T1 sequence (P53350 21-346): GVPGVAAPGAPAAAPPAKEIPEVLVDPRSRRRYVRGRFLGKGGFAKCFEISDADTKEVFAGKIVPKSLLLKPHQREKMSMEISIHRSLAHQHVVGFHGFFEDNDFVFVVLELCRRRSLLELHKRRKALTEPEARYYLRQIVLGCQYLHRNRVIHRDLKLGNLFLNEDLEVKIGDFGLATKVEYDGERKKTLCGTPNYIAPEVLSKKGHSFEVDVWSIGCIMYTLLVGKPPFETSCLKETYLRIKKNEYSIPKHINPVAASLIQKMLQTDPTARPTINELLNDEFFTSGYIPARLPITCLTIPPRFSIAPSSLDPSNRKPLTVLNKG
row,SMILES,IC50 [nM]
1,"C[C@@H](Oc1cc(-n2cnc3cc(-c4cnn(C)c4)ccc32)sc1C(N)=O)c1cccc(OC2CCN(CCC(F)(F)F)CC2)c1Cl [Example 30, 3-{[(1R)-1-(2-chloro-3-{[1-(3,3,3-trifluoropropyl)-4-piperidinyl]oxy}phenyl)ethyl]oxy}-5-[5-(1-methyl-1H-pyrazol-4-yl)-1H-benzimidazol-1-yl]-2-thiopenecarboxamide]",< 100
2,"Cc1ccc(-c2ccc3c(c2)ncn3-c2cc(O[C@H](C)c3cccc(OC4CCN(C)CC4)c3Cl)c(C(N)=O)s2)cn1 [Example 10, 3-[((1R)-1-{2-chloro-3-[(1-methyl-4-piperidinyl)oxy]phenyl}ethyl)oxy]-5-[5-(6-methyl-3-pyridinyl)-1H-benzimidazol-1-yl]-2-thiophenecarboxamide]",< 100
3,"C[C@@H](Oc1cc(-n2cnc3cc(Cl)ccc32)sc1C(N)=O)c1cccc(OC[C@@H]2CNCCO2)c1Cl [Example 28, 5-(5-Chloro-1H-benzimidazol-1-yl)-3-{[(1R)-1-(2-chloro-3-{[(2S)-2-morpholinylmethyl]oxy}phenyl)ethyl]oxy}-2-thiophenecarboxamide]",< 100
4,"C[C@@H](Oc1cc(-n2cnc3cc(F)c(Cl)cc32)sc1C(N)=O)c1cccc(OC2CCNCC2)c1Cl [Example 69, 5-(6-Chloro-5-fluoro-1H-benzimidazol-1-yl)-3-({(1R)-1-[2-chloro-3-(4-piperidinyloxy)phenyl]ethyl}oxy)-2-thiophenecarboxamide]",< 100
5,"C[C@@H](Oc1cc(-n2cnc3cc(-c4ccc(NC5CCN(C)CC5)nc4)ccc32)sc1C(N)=O)c1cccc(OC2CCN(C)CC2)c1Cl [Example 18, 3-[((1R)-1-{2-chloro-3-[(1-methyl-4-piperidinyl)oxy]phenyl}ethyl)oxy]-5-(5-{6-[(1-methyl-4-piperidinyl)amino]-3-pyridinyl}-1H-benzimidazol-1-yl)-2-thiophenecarboxamide]",< 100
6,"C[C@@H](Oc1cc(-n2cnc3cc(Cl)ccc32)sc1C(N)=O)c1cccc(OC[C@H]2CNCCO2)c1Cl [Example 27, 5-(5-Chloro-1H-benzimidazol-1-yl)-3-{[(1R)-1-(2-chloro-3-{[(2R)-2-morpholinylmethyl]oxy}phenyl)ethyl]oxy}-2-thiophenecarboxamide]",< 100
7,"C[C@@H](Oc1cc(-n2cnc3ccc(Br)cc32)sc1C(N)=O)c1cccc(OC2CCNCC2)c1Cl [Example 7, 5-(6-Bromo-1H-benzimidazol-1-yl)-3-({(1R)-1-[2-chloro-3-(4-piperidinyloxy)phenyl]ethyl}oxy)-2-thiophenecarboxamide]",< 100
8,"C[C@@H](Oc1cc(-n2cnc3cc(-c4cnn(C)c4)ccc32)sc1C(N)=O)c1cccc(OC2CCN(CCS(C)(=O)=O)CC2)c1Cl [Example 31, 3-({(1R)-1-[2-Chloro-3-({1-[2-(methylsulfonyl)ethyl]-4-piperldinyl}oxy)phenyl]ethyl}oxy)-5-[5-(1-methyl-1H-pyrazol-4-yl)-1H-benzimidazol-1-yl]-2-thiophenecarboxamide]",< 100
9,"C[C@@H](Oc1cc(-n2cnc3cc(Cl)c(F)cc32)sc1C(N)=O)c1cccc(OC2CCN(C)CC2)c1Cl [Example 68, 5-(5-Chloro-6-fluoro-1H-benzimidazol-1-yl)-3-[((1R)-1-{2-chloro-3-[(1-methyl-4-piperidinyl)oxy]phenyl}ethyl)oxy]-2-thiophenecarboxamide]",< 100
10,"C[C@@H](Oc1cc(-n2cnc3cc(Cl)ccc32)sc1C(N)=O)c1cccc(OC2CCN(CCN)CC2)c1Cl [Example 22, 3-{[(1R)-1-(3-{[1-(2-aminoethyl)-4-piperidinyl]oxy}-2-chlorophenyl)ethyl]oxy}-5-(5-chloro-1H-benzimidazol-1-yl)-2-thiophenecarboxamide]",< 100
11,"C[C@@H](Oc1cc(-n2cnc3cc(-c4cnn(C)c4)ccc32)sc1C(N)=O)c1ccc(F)c(OC2CCN(CCF)CC2)c1Cl [Example 35, 3-{[(1R)-1-(2-Chloro-4-fluoro-3-{[1-(2-fluoroethyl)-4-piperidinyl]oxy}phenyl)ethyl]oxy}-5-[5-(1-methyl-1H-pyrazol-4-yl)-1H-benzimidazol-1-yl]-2-thiophenecarboxamide]",< 100
12,"C[C@@H](Oc1cc(-n2cnc3cc(-c4cnn(C)c4)ccc32)sc1C(N)=O)c1ccc(F)c(OC2CCN(CCS(C)(=O)=O)CC2)c1Cl [Example 36, 3-({(1R)-1-[2-Chloro-4-fluoro-3-({1-[2-(methylsulfonyl)ethyl]-4-piperidinyl}oxy)phenyl]ethyl}oxy)-5-[5-(1-methyl-1H-pyrazol-4-yl)-1H-benzimidazol-1-yl]-2-thiophenecarboxamide]",< 100
13,"C[C@@H](Oc1cc(-n2cnc3cc(-c4cc[n+]([O-])cc4)ccc32)sc1C(N)=O)c1cccc(OC2CCNCC2)c1Cl [Example 37, 3-({(1R)-1-[2-Chloro-3-(4-piperidinyloxy)phenyl]ethyl}oxy)-5-[5-(1-oxido-4-pyridinyl)-1H-benzimidazol-1-yl]-2-thiophenecarboxamide]",< 100
14,COc1cc2ncn(-c3cc(O[C@H](C)c4cccc(NCC5CCN(C)CC5)c4Cl)c(C(N)=O)s3)c2cc1OC [Example 2],< 100
15,"CC(C)N1CCC(Oc2cccc([C@@H](C)Oc3cc(-n4cnc5cc(Cl)ccc54)sc3C(N)=O)c2Cl)CC1 [Example 24, 5-(5-Chloro-1H-benzimidazol-1-yl)-3-{[(1R)-1-(2-chloro-3-{[1-(1-methylethyl)-4-piperidinyl]oxy}phenyl)ethyl]oxy}-2-thiophenecarboxamide]",< 100
16,"C[C@@H](Oc1cc(-n2cnc3ccc(C#N)cc32)sc1C(N)=O)c1cccc(OC2CCN(C)CC2)c1Cl [Example 4, 3-((1R)-1-{2-chloro-3-[(1-methylpiperidin-4-yl)oxy]phenyl}-ethoxy)-5-(6-cyano-1H-benzimidazol-1-yl)thiophene-2-carboxamide]",< 100
17,"CC(Oc1cc(-n2cnc3cc(-c4cnn(C)c4)ccc32)sc1C(N)=O)c1cccc(OC2CCNCC2)c1 (racemic) [Example 73, (+/−)-5-[5-(1-Methyl-1H-pyrazol-4-yl)-1H-benzimidazol-1-yl]-3-({1-[3-(4-piperidinyloxy)phenyl]ethyl}oxy)-2-thiophenecarboxamide]",< 100
18,"Cc1nnc(-c2ccc3c(c2)ncn3-c2cc(O[C@H](C)c3cccc(OC4CCN(C)CC4)c3Cl)c(C(N)=O)s2)o1 [Example 88, 3-[((1R)-1-{2-chloro-3-[(1-methyl-4-piperidinyl)oxy]phenyl}ethyl)oxy]-5-[5-(5-methyl-1,3,4-oxadiazol-2-yl)-1H-benzimidazol-1-yl]-2-thiophenecarboxamide]",< 100
19,"CC(Oc1cc(-n2cnc3cc(-c4cnn(C)c4)ccc32)sc1C(N)=O)c1ccnc(OC2CCNCC2)c1 (racemic) [Example 79, (+/−)-5-[5-(1-Methyl-1H-pyrazol-4-yl)-1H-benzimidazol-1-yl]-3-({1-[2-(4-piperidinyloxy)-4-pyridinyl]ethyl}oxy)-2-thiophenecarboxamide]",< 100
20,"C[C@@H](Oc1cc(-n2cnc3cc(Cl)ccc32)sc1C(N)=O)c1cccc(OC2CCNCC2)c1Cl [Example 8, 5-(5-Chloro-1H-benzimidazol-1-yl)-3-({(1R)-1-[2-chloro-3-(4-piperidinyloxy)phenyl]ethyl}oxy)-2-thiophenecarboxamide]",< 100
21,"C[C@@H](Oc1cc(-n2cnc3cc(Cl)ccc32)sc1C(N)=O)c1cccc(OC2CCN(CCF)CC2)c1Cl [Example 21, 5-(5-Chloro-1H-benzimidazol-1-yl)-3-{[(1R)-1-(2-chloro-3-{[1-(2-fluoroethyl)-4-piperidinyl]oxy}phenyl)ethyl]oxy}-2-thiophenecarboxamide]",< 100
22,"Cc1cc(-c2ccc3c(c2)ncn3-c2cc(O[C@H](C)c3cccc(OC4CCN(C)CC4)c3Cl)c(C(N)=O)s2)ccn1 [Example 50, 3-[((1R)-1-{2-Chloro-3-[(1-methyl-4-piperidinyl)oxy]phenyl}ethyl)oxy]-5-[5-(2-methyl-4-pyridinyl)-1H-benzimidazol-1-yl]-2-thiophenecarboxamide]",< 100
23,"CC(Oc1cc(-n2cnc3cc(-c4cnn(C)c4)ccc32)sc1C(N)=O)c1cccc(OC2CCN(C)CC2)n1 (racemic) [Example 82, (+/−)-3-[(1-{6-[(1-Methyl-4-piperidinyl)oxy]-2-pyridinyl}ethyl)oxy]-5-[5-(1-methyl-1H-pyrazol-4-yl)-1H-benzimidazol-1-yl]-2-thiophenecarboxamide]",< 100
24,"COc1cc2ncn(-c3cc(O[C@H](C)c4cccc(OCC5CCN(C(=O)OC(C)(C)C)CC5)c4Cl)c(C(N)=O)s3)c2cc1OC [Example 39, 1,1-Dimethylethyl 4-[({3-[(1R)-1-({2-(aminocarbonyl)-5-[5,6-bis(methyloxy)-1H-benzimidazol-1-yl]-3-thienyl}oxy)ethyl]-2-chlorophenyl}oxy)methyl]-1-piperidinecarboxylate]",< 100
25,"C[C@@H](Oc1cc(-n2cnc3ccccc32)sc1C(N)=O)c1cccc(OC2CCNCC2)c1Cl [Example 14, 5-(1H-Benzimidazol-1-yl)-3-({(1R)-1-[2-chloro-3-(4-piperidinyloxy)phenyl]ethyl}oxy)-2-thiophenecarboxamide]",< 100
26,"C[C@@H](Oc1cc(-n2cnc3ccc(Cl)cc32)sc1C(N)=O)c1cccc(OC2CCNCC2)c1Cl [Example 52, 5-(6-Chloro-1H-benzimidazol-1-yl)-3-({(1R)-1-[2-chloro-3-(4-piperidinyloxy)phenyl]ethyl}oxy)-2-thiophenecarboxamide]",< 100
27,"C[C@@H](Oc1cc(-n2cnc3cc(Cl)ccc32)sc1C(N)=O)c1cccc(OC2CCN(CCS(C)(=O)=O)CC2)c1Cl [Example 23, 5-(5-Chloro-1H-benzimidazol-1-yl)-3-({(1R)-1-[2-chloro-3-({1-[2-(methylsulfonyl)ethyl]-4-piperidinyl}oxy)phenyl]ethyl}oxy)-2-thiophenecarboxamide]",< 100
